In the supplement of paper PMC6470124:

How the values were obtained:
[1] = LC retention time (Atlantis T3, 5-95% MeOH gradient, 0.1% formic acid); higher = more retained / less polar
Summary of the method: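 Retention times were recorded for reference standards (purity ≥ 95%) on a polar reversed-phase C18 column (Atlantis T3, 3 × 150 mm, 3 μm) at 0.3 mL/min. Elution used water and methanol, each with 0.1% formic acid, in a gradient from 5 to 95% methanol over 17.5 min. Detection was by high-resolution tandem mass spectrometry on a QExactive Plus, with positive and negative electrospray in separate runs. Peaks were found and integrated in TraceFinder (5 ppm tolerance, at least three points per peak) and then checked by hand.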

[2] = absolute recovery over mixed-bed multilayer solid-phase extraction; higher = better recovery; conditions: enrichment method: SPE
Summary of the method: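 Absolute recovery rests on background-corrected response ratios of pre- versus post-spiked samples, averaged over at least two replicates. Wastewater (100–250 mL, pH 6.5, glass-fibre filtered) was spiked at 1000 ng/L and unfiltered nanopure water (1000 mL) at 200 ng/L, before or after three-layer mixed-bed cartridge extraction or not at all, with exceptions for some classes. Analysis after internal standard addition used liquid chromatography with high-resolution tandem mass spectrometry in both ionisation modes.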

[3] = absolute recovery over vacuum-assisted evaporative concentration; higher = better recovery; conditions: enrichment method: VEC
Summary of the method: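 Water samples (influent 6 mL, effluent 15 mL, surface and nanopure water 60 mL) were spiked with standards before concentration, after concentration or not at all, at 200 ng/L (nanopure/surface) or 1000 ng/L (wastewater), with class- and compound-specific adjustments. They were evaporated at 55 °C and 20 mbar to about 0.3 mL, brought to 0.4 mL and centrifuged. Internal standards were added afterwards and samples were analysed by LC-HRMS/MS. Absolute recovery was (response ratio pre − unspiked)/(post − unspiked) × 100, using averages of ≥ 2 replicates.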

Cc1ccc(-c2c(Cl)nc(C#N)n2S(=O)(=O)N(C)C)cc1 [Cyazofamid]
LC retention time [1]: 20.3 min | absolute recovery ([2]; nanopure water): 66.4% | absolute recovery ([2]; surface water): 64.6% | absolute recovery ([2]; wastewater effluent): 58% | absolute recovery ([2]; wastewater influent): 63.2% | absolute recovery ([3]; wastewater effluent): 99.5% | absolute recovery ([3]; wastewater influent): 104%

NS(=O)(=O)c1cc2c(cc1Cl)NCNS2(=O)=O [Hydrochlorothiazid]
LC retention time [1]: 10.2 min | absolute recovery ([2]; nanopure water): 96.7% | absolute recovery ([2]; surface water): 98.2% | absolute recovery ([2]; wastewater effluent): 89.1% | absolute recovery ([2]; wastewater influent): 91.7% | absolute recovery ([3]; wastewater effluent): 104% | absolute recovery ([3]; wastewater influent): 100%

CC([NH3+])C(O)c1ccccc1 (centres undefined) [Cathine]
LC retention time [1]: 9.27 min | absolute recovery ([2]; nanopure water): 75.1% | absolute recovery ([2]; surface water): 70.2% | absolute recovery ([2]; wastewater effluent): 68.1% | absolute recovery ([2]; wastewater influent): 77.6% | absolute recovery ([3]; wastewater effluent): 104% | absolute recovery ([3]; wastewater influent): 96.1%

CC(C)N(C(=O)C(=O)[O-])c1ccccc1 [Propachlor-OXA]
LC retention time [1]: 17.8 min | absolute recovery ([2]; nanopure water): 96% | absolute recovery ([2]; surface water): 73.3% | absolute recovery ([2]; wastewater effluent): 93.5% | absolute recovery ([2]; wastewater influent): 102% | absolute recovery ([3]; wastewater effluent): 105% | absolute recovery ([3]; wastewater influent): 100%

COc1cc(OC)n2nc(S(=O)(=O)Nc3c(Cl)ccc(C)c3Cl)nc2n1 [Metosulam]
LC retention time [1]: 17 min | absolute recovery ([2]; nanopure water): 98.1% | absolute recovery ([2]; surface water): 96.2% | absolute recovery ([2]; wastewater effluent): 99.7% | absolute recovery ([2]; wastewater influent): 92.6% | absolute recovery ([3]; wastewater effluent): 98.6% | absolute recovery ([3]; wastewater influent): 106%

O=C([O-])COCC[NH+]1CCN(C(c2ccccc2)c2ccc(Cl)cc2)CC1 (centres undefined) [Cetirizin]
LC retention time [1]: 17.4 min | absolute recovery ([2]; nanopure water): 97.8% | absolute recovery ([2]; surface water): 96.3% | absolute recovery ([2]; wastewater effluent): 95.8% | absolute recovery ([2]; wastewater influent): 92.2% | absolute recovery ([3]; wastewater effluent): 107% | absolute recovery ([3]; wastewater influent): 100%

COc1ccc(CCC(=O)c2c(O)cc(OC3OC(CO)C(O)C(O)C3OC3OC(C)C(O)C(O)C3O)cc2O)cc1O (centres undefined) [Neohesperidin-dihydrochalcon]
LC retention time [1]: 16.3 min | absolute recovery ([2]; nanopure water): 71.4% | absolute recovery ([2]; surface water): 78.7% | absolute recovery ([2]; wastewater effluent): 90.1% | absolute recovery ([2]; wastewater influent): 85% | absolute recovery ([3]; wastewater effluent): 51.7% | absolute recovery ([3]; wastewater influent): 49.7%

CC(C)(C)C(O)C(Oc1ccc(Cl)cc1)n1cncn1 (centres undefined) [Triadimenol-A]
LC retention time [1]: 20 min | absolute recovery ([2]; nanopure water): 98.4% | absolute recovery ([2]; surface water): 83.6% | absolute recovery ([2]; wastewater effluent): 85.5% | absolute recovery ([2]; wastewater influent): 94.1% | absolute recovery ([3]; wastewater effluent): 87.1% | absolute recovery ([3]; wastewater influent): 97.4%

Clc1ccc(C(c2ccccc2)N2CC[NH2+]CC2)cc1 (centres undefined) [1-[(4-Chlorophenyl)phenylmethyl]piperazine]
LC retention time [1]: 16.2 min | absolute recovery ([2]; nanopure water): 82.7% | absolute recovery ([2]; surface water): 84.1% | absolute recovery ([2]; wastewater effluent): 85.4% | absolute recovery ([2]; wastewater influent): 122% | absolute recovery ([3]; wastewater effluent): 86.4% | absolute recovery ([3]; wastewater influent): 116%

COC(=O)c1ccc(I)cc1S(=O)(=O)[N-]C(=O)Nc1nc(C)nc(OC)n1 [Iodosulfuron-methyl]
LC retention time [1]: 19 min | absolute recovery ([2]; nanopure water): 107% | absolute recovery ([2]; surface water): 96.8% | absolute recovery ([2]; wastewater effluent): 101% | absolute recovery ([2]; wastewater influent): 92.8% | absolute recovery ([3]; wastewater effluent): 116% | absolute recovery ([3]; wastewater influent): 102%

Cc1nn(-c2cc(NS(C)(=O)=O)c(Cl)cc2Cl)c(=O)n1C(F)F [Sulfentrazon]
LC retention time [1]: 17.3 min | absolute recovery ([2]; nanopure water): 97.5% | absolute recovery ([2]; surface water): 100% | absolute recovery ([2]; wastewater effluent): 92.9% | absolute recovery ([2]; wastewater influent): 88.9% | absolute recovery ([3]; wastewater effluent): 104% | absolute recovery ([3]; wastewater influent): 107%

NC(=O)N1c2ccccc2C(O)C(O)c2ccccc21 (centres undefined) [Carbamazepin-10-11-dihydro-10-11-dihydroxy]
LC retention time [1]: 15.3 min | absolute recovery ([2]; nanopure water): 95.2% | absolute recovery ([2]; surface water): 97.5% | absolute recovery ([2]; wastewater effluent): 94.2% | absolute recovery ([2]; wastewater influent): 96% | absolute recovery ([3]; wastewater effluent): 97.7% | absolute recovery ([3]; wastewater influent): 93.4%

CC(C)N(Cc1ccccc1)C(=O)C(C)(C)C [Tebutam]
LC retention time [1]: 20.5 min | absolute recovery ([2]; nanopure water): 85.7% | absolute recovery ([2]; surface water): 88.7% | absolute recovery ([2]; wastewater effluent): 81.3% | absolute recovery ([2]; wastewater influent): 89.5% | absolute recovery ([3]; wastewater effluent): 52.3% | absolute recovery ([3]; wastewater influent): 46.1%

C[NH+](C)CCC(c1ccccc1)c1ccccn1 (centres undefined) [Pheniramine]
LC retention time [1]: 11 min | absolute recovery ([2]; nanopure water): 87.9% | absolute recovery ([2]; surface water): 93.7% | absolute recovery ([2]; wastewater effluent): 91.7% | absolute recovery ([2]; wastewater influent): 86.8% | absolute recovery ([3]; wastewater effluent): 113% | absolute recovery ([3]; wastewater influent): 87.2%

O=c1[nH]c2c(c(=O)n1C1CCCCC1)CCC2 [Lenacil]
LC retention time [1]: 18.6 min | absolute recovery ([2]; nanopure water): 93.2% | absolute recovery ([2]; surface water): 87.6% | absolute recovery ([2]; wastewater effluent): 92% | absolute recovery ([2]; wastewater influent): 92.4% | absolute recovery ([3]; wastewater effluent): 102% | absolute recovery ([3]; wastewater influent): 103%

COc1cccc(C2(O)CCCCC2C[NH+](C)C)c1 (centres undefined) [Tramadol]
LC retention time [1]: 12.2 min | absolute recovery ([2]; nanopure water): 94.2% | absolute recovery ([2]; surface water): 85.7% | absolute recovery ([2]; wastewater effluent): 92% | absolute recovery ([2]; wastewater influent): 91.6% | absolute recovery ([3]; wastewater effluent): 82.8% | absolute recovery ([3]; wastewater influent): 144%

CC(C)c1c(C(=O)Nc2ccccc2)c(-c2ccccc2)c(-c2ccc(F)cc2)n1CCC(O)CC(O)CC(=O)[O-] (centres undefined) [Atorvastatin]
LC retention time [1]: 19.8 min | absolute recovery ([2]; nanopure water): 31% | absolute recovery ([2]; surface water): 42.7% | absolute recovery ([2]; wastewater effluent): 45.5% | absolute recovery ([2]; wastewater influent): 46.5% | absolute recovery ([3]; wastewater effluent): 49.3% | absolute recovery ([3]; wastewater influent): 57.8%

Nc1[nH]c(=O)ncc1F [5-Fluoro-Cytosine]
LC retention time [1]: 3.63 min | absolute recovery ([2]; nanopure water): 4.4% | absolute recovery ([2]; surface water): 5.9% | absolute recovery ([2]; wastewater effluent): 5.4% | absolute recovery ([2]; wastewater influent): 4.3% | absolute recovery ([3]; wastewater effluent): 107% | absolute recovery ([3]; wastewater influent): 58.4%

CC[NH+](CC)CC(=O)Nc1c(C)cccc1C [Lidocain]
LC retention time [1]: 11.2 min | absolute recovery ([2]; nanopure water): 97.1% | absolute recovery ([2]; surface water): 96.5% | absolute recovery ([2]; wastewater effluent): 93.5% | absolute recovery ([2]; wastewater influent): 95% | absolute recovery ([3]; wastewater effluent): 101% | absolute recovery ([3]; wastewater influent): 99.4%

CC(=O)N(CC(O)CN(C(C)=O)c1c(I)c(C(=O)NCC(O)CO)c(I)c(C(=O)NCC(O)CO)c1I)c1c(I)c(C(=O)NCC(O)CO)c(I)c(C(=O)NCC(O)CO)c1I (centres undefined) [Iodixanol]
LC retention time [1]: 10.7 min | absolute recovery ([2]; nanopure water): 102% | absolute recovery ([3]; wastewater effluent): 149%

CCOC1Oc2ccc(OS(C)(=O)=O)cc2C1(C)C (centres undefined) [Ethofumesat]
LC retention time [1]: 19.2 min | absolute recovery ([2]; nanopure water): 98.7% | absolute recovery ([2]; surface water): 102% | absolute recovery ([2]; wastewater effluent): 96.1% | absolute recovery ([2]; wastewater influent): 92% | absolute recovery ([3]; wastewater effluent): 105% | absolute recovery ([3]; wastewater influent): 94%

CC(C)N(C(=O)C(=O)[O-])c1ccc(F)cc1 [Flufenacet-OXA]
LC retention time [1]: 19.1 min | absolute recovery ([2]; nanopure water): 93.7% | absolute recovery ([2]; surface water): 91.2% | absolute recovery ([2]; wastewater effluent): 93% | absolute recovery ([2]; wastewater influent): 92.4% | absolute recovery ([3]; wastewater effluent): 106% | absolute recovery ([3]; wastewater influent): 99.5%

C=CS(=O)(=O)[O-] [Vinylsulfonic-acid]
LC retention time [1]: 3.84 min | absolute recovery ([2]; nanopure water): 1.5% | absolute recovery ([3]; wastewater effluent): 103% | absolute recovery ([3]; wastewater influent): 108%
